Key:
[1] = tested on: free viruses and virally infected cells; details: with red light (400-900 nm); spiked blood products and whole blood from viremic cats; cited from earlier work
[2] = tested on: Red blood cells; details: after the virucidal treatment; cited from earlier work
[3] = tested on: mice skin; assay: Skin photosensitivity tests (skin and behaviour after double treatment); format: in vivo, Balb/c mice
Source text: Male Balb/c mice (7-11 weeks old; Charles River, Canada) were used in these studies, unless otherwise specified. Balb/c mice were chosen for the studies because of the lack of pigment in their skin. Shaving and depilation removed the hair very effectively from the entire body except the head. Then, the mouse skin appeared quite transparent. Internal organs, especially dark red organs such as liver and spleen, were visible through the skin. The mice were shaved and depilated with a commercially available depilator (Neet® or Nair®) 5 days before being used in the experiments. Control mice, injected with BPD but not exposed to light, were not shaved. Following injection the mice were kept in the dark for various lengths of time, as described below. Before and after the experiments the mice were kept in an animal facility with 12 hours of light and 12 hours of dark daily. After the experiments, in order to reduce the amount of light reaching the mice, their cages were placed on the lowest shelf with aluminum foil placed above them.
The light box was custom built at a workshop at the University of British Columbia. It was composed of two layers of 14 75 W tungsten-halogen reflector bulbs (General Electric), which illuminated the treatment area from the top and from the bottom. Light was filtered by 1) a set of filters comprising yellow and red plastic films which absorbed most of the light at wavelengths shorter than 600 nm and 2) 15 mm thick water filters which absorbed light above 900 nm. Cooling was provided by a steady flow of cold water in the water filters and by a set of 5 fans. The light intensity was measured by an IL 1350 Photometer (International Light).
The intensity of light delivered by the top and bottom sets of bulbs was not uniform. The bottom set delivered 33-40 mW/cm^2 as measured at floor level of the exposure chamber, while the top set delivered 27-33 mW/cm^2 as measured at the skin surface of the backs of the animals. The range described resulted from inconsistent influence at the horizontal plane of irradiation. In addition, mice moved about during light exposure, so that at various times different parts of their skin received different amounts of light. Therefore, the doses delivered to the surface of mice skin must be approximated and the calculations have been based on an intensity of 30 mW/cm^2.
Six Balb/c mice (22±1 g weight) were prepared as described above. Five mice were injected twice (24 hour interval) with BPD from DMSO stock (not liposomal BPD) and exposed to light 1 hour after the injection. One mouse was not injected but was exposed to light (light-only control). During the first treatment the mice were injected with 15 μg BPD/mouse in 200 μl of PBS. During the second treatment the mice were injected with 20 μg BPD/mouse (0.9 mg/kg). A single mouse was used as a control for both treatments.
Immediately post-injection (on both occasions) the animals were kept for 1 hour in the dark and then were placed in individual plastic containers (9×4×5 cm), which were placed in the light box and exposed to light. The individual mice were removed from the light box at different intervals: 15, 30, 45, 60 and 75 min, respectively. The light doses delivered at the surface of the skin were 27, 54, 81, 108 and 135 J/cm^2, respectively. On the second occasion the same light doses were used; however, mice receiving higher light doses on day 1 received lower doses on day 2. The control mouse was exposed to light for 60 min on both occasions. […]

[4] = BPD concentration in plasma of mice injected with L1210 cells; format: in vivo, Balb/c mice; details: for BPD Concentration in Plasma: Balb/c mice injected with L1210 cells; for BPD Concentration in Plasma, % of dark control: L1210
Protocol: Determination of BPD Concentration in Plasma: Plasma samples were obtained by centrifugation of blood collected from mice and stored frozen at -20° C. until assessment. The concentration of BPD in the samples was determined by fluorometry using a Jasco Model FP-770 (Japan Spectroscopic Co.) spectrofluorometer and a microcuvette (Far UV Quartz Cell, Starna Cells Inc.). Excitation and emission wavelengths were 439 and 699 nm, respectively. Plasma samples were diluted 20-fold with PBS containing 1% Triton® X-100 immediately before fluorescence was determined. BPD standards were prepared in 5% mouse plasma in PBS with 1% Triton® X-100. Under these conditions the relationship between the concentration of BPD and units of fluorescence was linear (correlation coefficient >0.99) for concentrations between 0.1 ng/ml and 1 μg/ml. The limit of detection was below 0.1 ng/ml sample which corresponded to 2 ng/ml plasma. […] The 699 nm fluorescence peak of BPD was virtually free from any interference.
Male mature DBA/2 and Balb/c mice were injected intravenously with P815 and L1210 cells, respectively, preincubated for 1 hour with BPD (liposomal) at 100 ng/ml. Immediately before animal injection, an additional 2 μg of BPD was added to the syringes containing cells. […] One group of mice (shaved and depilated) was exposed immediately to red light (600-900 nm) in the light box for 1.5 hours (162 J/cm^2); the other group was kept in the dark as the control.
Immediately after exposure to light, blood samples were obtained by a heart puncture under halothane anesthesia. The concentration of BPD in plasma of light-exposed and control mice was determined by fluorescence. The number of clonogenic tumor cells in mouse blood was determined by culturing blood samples in culture medium supplemented with 10% bovine serum, using a limiting dilution assay protocol.

[5] = tested on: tumor tissue, including leukemic cells; details: cited from earlier work

In the case of “benzoprophyrin derivative monoacid ring A [BPD]”, the “elimination of free viruses and virally infected cells” value [1] is given as “effective in eliminating both free viruses and virally infected cells”, the “red blood cell viability” value [2] is given as “appeared viable” and the “signs of skin photosensitization” value ([3]; 0.9 mg/kg, red light 1 hour after injection, 27 to 135 J/cm^2, two weeks) is given as “did not show any signs of skin photosensitization”. For the same substance, the “gross changes in skin” value ([3]; Balb/c, i.e. 15 then 20 μg BPD/mouse (DMSO stock), light 27-135 J/cm^2, immediately post-exposure and two weeks) was “No gross changes were observed in mice skin”, the “effect of the same light dose at lower plasma levels” value ([3]; as demonstrated in Example 1) was “apparently harmless” and the “behaviour / discomfort under the light” value ([3]; both days of treatment, 27-135 J/cm^2, except occasional scratching) was “behaved normally under the light, without any signs of discomfort”. For the same substance, the behavioral changes ([3]; two weeks after double treatment) was “No behavioral changes were observed”, the Percent photodegraded ([4]; Balb/c, L1210, 162 J/cm^2) was 59% and the “BPD Concentration in Plasma” value ([4]; Dark control) was 126.45 ng/mL. The “BPD Concentration in Plasma, % of dark control” value ([4]; Dark control) was 100%, the “BPD Concentration in Plasma” value ([4]; Light exposed (162 J/cm^2)) was 52.23 ng/mL and the “BPD Concentration in Plasma, % of dark control” value ([4]; Light exposed (162 J/cm^2)) was 41%. The “affinity for tumor tissue versus normal cells” value [5] was “higher affinity for tumor tissue, including leukemic cells, than for normal non-malignant cells”.
